Data published in patent US9000045B2, “CETP activity inhibitors” (Japan Tobacco Inc., priority 1997, dated 2015).

target: T1, CETP (Homo sapiens, UniProt P11597); assay: In vitro CETP activity inhibitory effect in whole plasma; format: biochemical; parameters: Plasma containing [^3H]CE-HDL3 (600,000 dpm/ml) was prepared by adding donor lipoprotein obtained in the above (1) to plasma from healthy subjects; from tissue; host or cells: whole plasma of healthy subjects; conditions: plasma from healthy subjects containing [3H]CE-HDL3, incubated 4 hours at 37° C.; read-out: CETP activity inhibition in whole plasma IC50
T1 sequence (P11597 18-493): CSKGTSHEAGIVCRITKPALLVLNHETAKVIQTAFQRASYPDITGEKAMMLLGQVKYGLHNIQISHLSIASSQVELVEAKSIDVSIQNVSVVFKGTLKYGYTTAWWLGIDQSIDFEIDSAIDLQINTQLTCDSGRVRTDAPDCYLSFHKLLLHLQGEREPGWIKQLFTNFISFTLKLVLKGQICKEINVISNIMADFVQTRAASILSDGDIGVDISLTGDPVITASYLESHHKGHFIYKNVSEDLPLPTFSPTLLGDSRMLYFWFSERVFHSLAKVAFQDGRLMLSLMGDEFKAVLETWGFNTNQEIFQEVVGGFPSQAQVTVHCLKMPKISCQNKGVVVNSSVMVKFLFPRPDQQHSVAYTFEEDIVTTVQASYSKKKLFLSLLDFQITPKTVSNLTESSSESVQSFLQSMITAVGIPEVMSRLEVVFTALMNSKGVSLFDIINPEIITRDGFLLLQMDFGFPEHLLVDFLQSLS
Procedure: The fraction thus obtained was dialyzed against a PBS solution [10 mM Na2HPO4/10 mM NaH2PO4/0.15 M NaCl/1 mM EDTA (pH 7.4)]. Then, tritium-labeled cholesterol (10 nM) (50.3 Ci/mM) was dissolved in 95% ethanol and added gradually to the above HDL3 fraction under stirring. The solution was incubated for 18 hours at 37° C. […] After incubation, KBr was added and specific gravity was adjusted to d=1.21 g/ml. […] A sample solution was prepared using a 1:1 solution of N-methylpyrrolidone and polyethyleneglycol 400 as a solvent. […] Based on the inhibition rate (%) of CETP activity, IC50 value of each sample was calculated.

Going from `CC(C)CCC1(C(=O)Nc2ccccc2SC(=O)[C@@H]2CCC(=O)N2)CCCCC1` [Example 25-54] to `CC(C)CCC1(C(=O)Nc2ccccc2SC(=O)C2CCCCC2)CCCC1` [Example 25-64], the IC50 rises from 6 µM to 20 µM (3.3-fold). The first is the more potent here.

Compared with `CC(C)CCC1(C(=O)Nc2ccccc2SC(=O)[C@@H]2CCCN2C(=O)c2ccccc2)CCCCC1` [Example 25-55], `CC(C)CCC1(C(=O)Nc2ccccc2SC(=O)c2ccccc2)CCCCC1` [Example 44] is 2.3-fold higher in IC50: 10 µM for the first, 23 µM for the second. The first is the more potent here.

`CC(C)CCC1(C(=O)Nc2ccccc2SC(=O)c2cccnc2)CCCC1` [Example 25-60] and `CC(C)CCC1(C(=O)Nc2ccccc2SC(=O)c2cccnc2)CCCCC1` [Example 35] are within 1.5-fold of each other in IC50: 5 µM for the first, 4 µM for the second.

Compared with `CC(C)CCC1(C(=O)Nc2ccccc2SC(=O)C2CCN(C)CC2)CCCC1` [Example 25-65], `CC(C)CCC1(C(=O)Nc2ccccc2SC(=O)C2CCCCC2)CCCCC1` [Example 43] is 5.4-fold higher in IC50: 9 µM for the first, 49 µM for the second. The first is the more potent here.

`CC1(C(=O)Nc2cc(C(F)(F)F)ccc2SC(=O)Cc2ccccc2)CCCCC1` [Example 25-66] and `CC1(C(=O)Nc2cc(Cl)ccc2SC(=O)Cc2ccccc2)CCCCC1` [Example 66-3] are within 1.5-fold of each other in IC50: 35 µM for the first, 24 µM for the second.

`CC(C)(C)C(=O)Sc1ccc(C(F)(F)F)cc1NC(=O)C1(C)CCCCC1` [Example 25-67] and `CC(C)(C)C(=O)Sc1ccc(Cl)cc1NC(=O)C1(C)CCCCC1` [Example 66-4] are within 1.5-fold of each other in IC50: 40 µM for the first, 28 µM for the second.

Going from `CC(C)(C)C(=O)Sc1cc(F)c(F)cc1NC(=O)C1(C)CCCCC1` [Example 25-72] to `CC(C)(C)C(=O)Sc1cc(Cl)c(Cl)cc1NC(=O)C1(C)CCCCC1` [Example 66-9], the IC50 falls from 27 µM to 9 µM (3-fold). The second is the more potent here.

First: CC(=O)N[C@@H](Cc1ccccc1)C(=O)Sc1cc(Cl)c(Cl)cc1NC(=O)C1(CCC(C)C)CCCCC1 [Example 25-76]
Second: CC(=O)N[C@@H](Cc1ccccc1)C(=O)Sc1cc(Cl)c(Cl)cc1NC(=O)C1(C)CCCCC1 [Example 66-10]
The IC50 of the first is 1.6-fold higher: 36 µM for the first, 23 µM for the second.

`CC(C)CCC1(C(=O)Nc2cc(Cl)c(Cl)cc2SC(=O)c2cccnc2)CCCCC1` [Example 25-77] and `CC(C)CCC1(C(=O)Nc2cc(Cl)c(Cl)cc2SC(=O)c2cccnc2)CCCC1` [Example 25-87] are within 1.5-fold of each other in IC50: 7 µM for the first, 6 µM for the second.

First: CC(C)CCC1(C(=O)Nc2cc(Cl)c(Cl)cc2SC(=O)C2CCN(C)CC2)CCCCC1 [Example 25-78]
Second: CC(C)CCC1(C(=O)Nc2cc(Cl)c(Cl)cc2SC(=O)C2CCCCC2)CCCCC1 [Example 25-82]
The IC50 of the first is 1.5-fold lower: 11 µM for the first, 17 µM for the second. The first is the more potent here.

Compared with `COC(=O)CCC(=O)Sc1cc(Cl)c(Cl)cc1NC(=O)C1(CCC(C)C)CCCCC1` [Example 25-79], `COCC(=O)Sc1cc(Cl)c(Cl)cc1NC(=O)C1(CCC(C)C)CCCCC1` [Example 25-86] is 1.7-fold higher in IC50: 6 µM for the first, 10 µM for the second.

`CC(C)CCC1(C(=O)Nc2cc(Cl)c(Cl)cc2SC(=O)CN(C)C)CCCCC1` [Example 25-80] and `CCC(=O)Sc1cc(Cl)c(Cl)cc1NC(=O)C1(CCC(C)C)CCCCC1` [Example 25-85] are within 1.5-fold of each other in IC50: 5 µM for the first, 7 µM for the second.

`CC(C)CCC1(C(=O)Nc2cc(Cl)c(Cl)cc2SC(=O)c2ccccc2)CCCCC1` [Example 25-81] and `CC(C)CCC1(C(=O)Nc2cc(Cl)c(Cl)cc2SC(=O)Cc2ccccc2)CCCCC1` [Example 25-83] are within 1.5-fold of each other in IC50: 14 µM for the first, 18 µM for the second.

Compared with `COC(=O)Sc1cc(Cl)c(Cl)cc1NC(=O)C1(CCC(C)C)CCCCC1` [Example 25-91], `CCNC(=O)Sc1cc(Cl)c(Cl)cc1NC(=O)C1(CCC(C)C)CCCCC1` [Example 25-104] is 2.4-fold lower in IC50: 22 µM for the first, 9 µM for the second. The second is the more potent here.

`CCSC(=O)Sc1ccc(C(F)(F)F)cc1NC(=O)C1(C)CCCCC1` [Example 25-92] and `CC1(C(=O)Nc2cc(C(F)(F)F)ccc2SC(=O)Sc2ccccc2)CCCCC1` [Example 25-93] are within 1.5-fold of each other in IC50: 19 µM for the first, 22 µM for the second.

Compared with `CC(C)(C)C(=O)Nc1ccccc1SC(=O)Sc1ccccc1NC(=O)C(C)(C)C` [Example 25-94], `CC(C)(C)C(=O)Nc1ccccc1SC(=O)Cc1ccccc1` [Example 31] is 1.8-fold higher in IC50: 18 µM for the first, 32 µM for the second. The first is the more potent here.

Compared with `CC1(C(=O)Nc2ccccc2SC(=O)Sc2ccccc2NC(=O)C2(C)CCCCC2)CCCCC1` [Example 25-95], `CC1(C(=O)Nc2cc(C(F)(F)F)ccc2SC(=O)Sc2ccc(C(F)(F)F)cc2NC(=O)C2(C)CCCCC2)CCCCC1` [Example 25-96] is 2.2-fold lower in IC50: 18 µM for the first, 8 µM for the second.

`CC(C)CCC1(C(=O)Nc2ccccc2SC(=O)NC(C)C)CCCCC1` [Example 25-98] and `CCNC(=O)Sc1ccccc1NC(=O)C1(CCC(C)C)CCCCC1` [Example 25-99] are within 1.5-fold of each other in IC50: 8 µM for the first, 6 µM for the second.

First: CC(C)CCC1(C(=O)Nc2cc(Cl)c(Cl)cc2SC(=O)NC(C)C)CCCCC1 [Example 25-103]
Second: CC(C)CCC1(C(=O)Nc2cc(Cl)c(Cl)cc2SC(=O)C(C)(C)C)CCCCC1 [Example 50]
The IC50 of the first is 6-fold higher: 12 µM for the first, 2 µM for the second. The second is the more potent here.

Compared with `CC(C)(C)C(=O)Sc1ccccc1NC(=O)C1(C)CCCCC1` [Example 30], `CC1(C(=O)Nc2ccccc2SC(=O)c2ccccc2)CCCCC1` [Example 32] is 2.2-fold lower in IC50: 72 µM for the first, 32 µM for the second. The second is the more potent here.

Compared with `CC(C)CCC1(C(=O)Nc2cc(Cl)c(Cl)cc2SC(=O)C(C)(C)C)CCCC1` [Example 51], `CCCC1(C(=O)Nc2cc(Cl)c(Cl)cc2SC(=O)C(C)(C)C)CCCCC1` [Example 66-16] is 2-fold lower in IC50: 16 µM for the first, 8 µM for the second. The second is the more potent here.

First: CC(C)CCC1(C(=O)Nc2ccccc2SC(=O)CCCCC(=O)O)CCCCC1 [Example 53]
Second: COC(=O)Sc1ccccc1NC(=O)C1(CCC(C)C)CCCCC1 [Example 54]
The IC50 of the first is 1.5-fold lower: 8 µM for the first, 12 µM for the second. The first is the more potent here.

Going from `CC1(C(=O)Nc2ccccc2SC(=O)Sc2ccccc2)CCCCC1` [Example 55] to `CC1(C(=O)Nc2cc(Cl)c(Cl)cc2SC(=O)[C@@H](N)Cc2ccccc2)CCCCC1` [Example 66-12], the IC50 falls from 65 µM to 17 µM (3.8-fold).

First: CC(C)(C)C(=O)Nc1cc(C(F)(F)F)ccc1SC(=O)C(C)(C)C [Example 57]
Second: CC(C)(C)C(=O)Sc1cc(Cl)c(Cl)cc1NC(=O)C1CCC(C(C)(C)C)CC1 (stereo not drawn) [Example 66-26]
The IC50 of the first is 5.1-fold higher: 41 µM for the first, 8 µM for the second.

`CC(C)C1(C(=O)Nc2cc(Cl)c(Cl)cc2SC(=O)C(C)(C)C)CCCCC1` [Example 66, S-[4,5-dichloro-2-(1-isopropylcyclohexanecarbonyl-amino)phenyl]2,2-dimethylthiopropionate] and `CCCCC1(C(=O)Nc2cc(Cl)c(Cl)cc2SC(=O)C(C)(C)C)CCCCC1` [Example 66-29] are the same in IC50: 7 µM for the first, 7 µM for the second.

`CC(=O)N[C@H](Cc1ccccc1)C(=O)Sc1cc(Cl)c(Cl)cc1NC(=O)C1(C)CCCCC1` [Example 66-11] and `CC(C)(C)C(=O)Sc1cc(Cl)c(Cl)cc1NC(=O)[C@]12CCCC[C@@H]1CCCC2` [Example 66-22] are within 1.5-fold of each other in IC50: 22 µM for the first, 19 µM for the second.

Compared with `CC(C)CC(CC(C)C)C(=O)Nc1cc(Cl)c(Cl)cc1SC(=O)C(C)(C)C` [Example 66-14], `CC(C)CC(C(=O)Nc1cc(Cl)c(Cl)cc1SC(=O)C(C)(C)C)C1CCCCC1` (stereo not drawn) [Example 66-40] is 3.8-fold higher in IC50: 11 µM for the first, 42 µM for the second. The first is the more potent here.

`CC(C)(C)C(=O)Sc1cc(Cl)c(Cl)cc1NC(=O)C1C(C)(C)C1(C)C` [Example 66-17] and `CC(C)[C@H]1CC[C@H](C(=O)Nc2cc(Cl)c(Cl)cc2SC(=O)C(C)(C)C)CC1` [Example 66-32] are within 1.5-fold of each other in IC50: 18 µM for the first, 22 µM for the second.

`CC(C)(C)C(=O)Sc1cc(Cl)c(Cl)cc1NC(=O)C1(C2CCCCC2)CCCCC1` [Example 66-18] and `CC(C)(C)C(=O)Sc1cc(Cl)c(Cl)cc1NC(=O)[C@]12CCCC[C@@H]1CCC2` [Example 66-23] are within 1.5-fold of each other in IC50: 11 µM for the first, 13 µM for the second.

Compared with `CC(C)(C)C(=O)Sc1cc(Cl)c(Cl)cc1NC(=O)c1ccncc1` [Example 66-21], `CC(C)(C)C(=O)Sc1cc(Cl)c(Cl)cc1NC(=O)C1CCCCC1` [Example 66-25] is 2.2-fold lower in IC50: 41 µM for the first, 19 µM for the second. The second is the more potent here.

Compared with `CC(C)(C)C(=O)Sc1cc(Cl)c(Cl)cc1NC(=O)[C@@]12CCCC[C@@H]1CCC2` [Example 66-24], `CC(C)(C)C(=O)Sc1cc(Cl)c(Cl)cc1NC(=O)CC1CCCCC1` [Example 66-28] is 1.5-fold higher in IC50: 12 µM for the first, 18 µM for the second.

Compared with `CC(C)(C)C(=O)Sc1cc(Cl)c(Cl)cc1NC(=O)[C@H]1CC[C@H](C(C)(C)C)CC1` [Example 66-27], `CC(C)(C)C(=O)Sc1cc(Cl)c(Cl)cc1NC(=O)[C@H]1CC[C@H](C)CC1` [Example 66-30] is 2.1-fold higher in IC50: 9 µM for the first, 19 µM for the second.

`CC(C)(C)C(=O)Sc1cc(Cl)c(Cl)cc1NC(=O)[C@H]1CC[C@H](C2CCCCC2)CC1` [Example 66-31] and `CCC[C@H]1CC[C@H](C(=O)Nc2cc(Cl)c(Cl)cc2SC(=O)C(C)(C)C)CC1` [Example 66-33] are within 1.5-fold of each other in IC50: 27 µM for the first, 19 µM for the second.

`CCCCC[C@H]1CC[C@H](C(=O)Nc2cc(Cl)c(Cl)cc2SC(=O)C(C)(C)C)CC1` [Example 66-34] and `CC(C)(C)C(=O)Sc1cc(Cl)c(Cl)cc1NC(=O)C(C)(C)C1CCCCC1` [Example 66-41] are within 1.5-fold of each other in IC50: 22 µM for the first, 25 µM for the second.

In the case of `CC(C)C(C(=O)Nc1cc(Cl)c(Cl)cc1SC(=O)C(C)(C)C)C1CCCCC1` (stereo not drawn) [Example 66-38], the IC50 is reported as 26 µM.
